Laboratory results: patent US5605929A, “Methods and compositions for inhibiting 5α-reductase activity” (priority 1995, dated 1997)
Like-named read-outs stand apart in the source and are kept apart here.

Legend:
[1] = molecular target: T1, human 5α-reductase isozyme type 1 (Homo sapiens, UniProt P18405); experiment: [3H]4-MA binding, human type 1 isozyme expressed in Rat-1A cells; conditions: read-out: % Inhibition of [^3 H]4-MA binding
T1 construct: expressed in transfected cells; host or cells: Rat-1A cells infected with pMV7 retrovirus; microsomes of these cells
T1 sequence (P18405 1-259): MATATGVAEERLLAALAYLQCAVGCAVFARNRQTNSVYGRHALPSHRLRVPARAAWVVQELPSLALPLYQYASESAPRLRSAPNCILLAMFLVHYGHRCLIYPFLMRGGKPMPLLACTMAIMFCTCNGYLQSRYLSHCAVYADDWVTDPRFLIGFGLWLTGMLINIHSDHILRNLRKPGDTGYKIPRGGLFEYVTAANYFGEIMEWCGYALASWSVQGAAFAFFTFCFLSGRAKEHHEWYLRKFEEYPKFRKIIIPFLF
Text: (§1) The cDNAs for the human type 1 and 2 5α-reductases were isolated from human prostate λZAP II™ cDNA libraries using the published sequence of the 5α-reductases, PCR™ and standard library screening techniques (Sambrook et al., 1989). The type 1 and 2 cDNAs correspond to nucleotides 31-870 and 28-829, respectively, of the published sequences for these 5α-reductases (Anderson and Russell, 1990; Anderson et al., 1991). The type 1 and 2 cDNAs were subcloned into the retroviral expression vector pMV7 (Kirschmeier et al., 1988) and high titer stocks of virus containing the type 1 and 2 cDNAs were generated using the packaging cells BOSC 23 293 (Kirschmeier et al., 1988). Rat.-1A cells (Pear et al., 1993) were infected with virus (Topp, 1981) and cells containing integrated retrovirus were selected for G418-SO4 resistance, (Brown and Scott, 1987).
(§2) Microsomes were prepared as described previously (Liang and Liao, 1992) from the liver of adult Sprague-Dawley female rats or Rat-1A cells expressing a specific type of human 5α-reductase. […] The data presented was based on the rate of reaction.
(§3) [^3 H]4-MA binding assay were described in detail previously (Liang and Liao, 1992; Liang et al., 1983). […] The reaction was started by the addition of 25 μl of microsomes (25 μg protein). After 30-60 min incubation at 0° C., the [^3 H]4-MA bound to microsomes was collected on a Whatman GF/F glass fiber, washed and radioactivity determined (Liang and Liao, 1992).

[2] = molecular target: T2, human 5α-reductase isozyme type 2 (Homo sapiens, UniProt P31213); experiment: [3H]4-MA binding, human type 2 isozyme expressed in Rat-1A cells
T2 construct: expressed in transfected cells; host or cells: Rat-1A cells infected with pMV7 retrovirus; microsomes of these cells
T2 sequence (P31213 1-254): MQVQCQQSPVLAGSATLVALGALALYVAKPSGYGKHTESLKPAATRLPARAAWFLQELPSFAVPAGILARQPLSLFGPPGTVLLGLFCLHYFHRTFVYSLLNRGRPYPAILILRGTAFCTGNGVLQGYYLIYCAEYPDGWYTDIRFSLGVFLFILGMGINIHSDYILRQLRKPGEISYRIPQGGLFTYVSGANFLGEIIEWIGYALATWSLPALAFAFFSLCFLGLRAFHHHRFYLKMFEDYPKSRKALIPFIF
Text: as §1, §2, §3

[3] = molecular target: human type 1 and 2 5α-reductase isozymes (Homo sapiens, UniProt P18405); conditions: cited from earlier work
[4] = tested on: human type 1 and 2 5α-reductase isozymes; conditions: human; cited from earlier work
[5] = tested on: plasma 5α-DHT and prostate; conditions: BPH patients; cited from earlier work
[6] = tested on: scalp baldness; conditions: cited from earlier work
[7] = molecular target: type 1 5α-reductase (Homo sapiens, UniProt P18405); conditions: cited from earlier work
[8] = molecular target: T3, 5α-Reductase of Rat Liver Microsomes (Rattus norvegicus, UniProt P24008); experiment: biochemical
T3 sequence (P24008 1-259): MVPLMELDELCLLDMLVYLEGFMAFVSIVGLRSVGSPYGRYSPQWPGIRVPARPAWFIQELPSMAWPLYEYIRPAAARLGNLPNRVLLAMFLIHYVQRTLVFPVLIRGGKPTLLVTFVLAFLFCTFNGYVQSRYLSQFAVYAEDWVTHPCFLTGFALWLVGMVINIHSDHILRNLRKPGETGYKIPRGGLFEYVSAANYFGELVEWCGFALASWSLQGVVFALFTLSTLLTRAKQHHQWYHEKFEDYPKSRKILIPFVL

[9] = tested on: PC-3; experiment: 5α-DHT formation from [3H]testosterone by PC-3 cells; assay type: cell-based, human
[10] = tested on: Human Prostatic Cancer Cells; experiment: Cell morphology during 2 hour incubation; assay type: cell-based
[11] = tested on: hamster flank organ; experiment: Flank organ, castrated immature male hamsters, topical treatment; assay type: in vivo, Syrian golden hamster
In short: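 Castrated immature male hamsters (5 per group) received 5 μl once daily on the right flank organ of ethanol vehicle, androgen (T or 5α-DHT), fatty acid, or androgen plus fatty acid. The left organ was left untreated. Pigmented macule and sebaceous gland growth were assessed with caliper long and short axes, as mean ± SD.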

[12] = tested on: 17β-steroid dehydrogenase; experiment: 4-Androstenedione formation from [3H]testosterone by PC-3 cells (17β-steroid dehydrogenase); assay type: cell-based, human
[13] = read-out: % Inhibition of [^3 H]4-MA binding

With `CC(C)(C)NC(=O)[C@H]1CC[C@H]2[C@@H]3CC[C@H]4NC(=O)C=C[C@]4(C)[C@H]3CC[C@]12C` [Finasteride, 17β-N-t-butylcarbamoyl-4-aza-5α-androst-1-en-3-one, reference compound] the inhibition at 0.001 µM [1] was less than 10%, the inhibition at 0.003 µM [1] was less than 10% and the inhibition at 0.01 µM [1] was less than 10%. The inhibition at 0.03 µM [1] was less than 10%, the inhibition at 0.1 µM [1] was less than 10% and the “inhibition of type 2 isozyme expressed in Rat-1A cells” value [2] was “inhibited the type 2 isozyme”. The inhibition at 0.001 µM [2, 13] was less than 10%, the inhibition at 0.003 µM [2, 13] was less than 10% and the inhibition at 0.01 µM [2, 13] was 22%. For the same molecule, the inhibition at 0.03 µM [2, 13] was 44%, the inhibition at 0.1 µM [2, 13] was 67% and the “sensitivity of type 1 isozyme” value [3] was “rather insensitive”. The “sensitivity of type 2 vs type 1 isozyme to inhibition (times)” value [4] was 30 times, the “plasma 5α-DHT and prostate size” value [5] was “decreases the plasma level of 5α-DHT and the size of the prostate” and the “serum 5α-DHT and hair” value ([6]; 0.5 mg/day oral, alone or with topical 2% Minoxidil) was “reduced serum 5α-DHT level”. The “baldness” value ([6]; topical to scalp) was “effective in preventing male pattern baldness”.
In the case of `CN1C(=O)CC[C@@H]2c3ccc(Cl)cc3CC[C@H]21` [LY191704], the “type 1 5α-reductase selectivity” value [7] is listed as “selective inhibitor of the type 1 5α-reductase”.
`CCCCCCCCCCCCCCCCCC(=O)O` [Stearic acid] showed an inhibition at 10 µM ([8]; read-out: % Inhibition of [^3 H]4-MA binding, Table 1, 10 μM) of less than 10%, an inhibition at 40 µM ([8]; read-out: % Inhibition of [^3 H]4-MA binding, Table 1, 40 μM) of less than 10% and an inhibition at 200 µM ([8]; read-out: % Inhibition of [^3 H]4-MA binding, Table 1, 200 μM) of less than 10%. The inhibition at 10 µM ([8]; read-out: % Inhibition of [^3 H]4-MA binding, Table 2, 10 μM) was less than 10%, the inhibition at 40 µM ([8]; read-out: % Inhibition of [^3 H]4-MA binding, Table 2, 40 μM) was less than 10% and the inhibition at 200 µM ([8]; read-out: % Inhibition of [^3 H]4-MA binding, Table 2, 200 μM) was less than 10%. The “effect on 5α-reductase reduction” value ([9]; 5 to 20 μM, words) was “did not affect”, the activity at 5 µM ([9]; Homo sapiens, PC-3, 5 μM, read-out: 5α-DHT formed (% of control)) was 123 ± 2% and the activity at 20 µM ([9]; Homo sapiens, PC-3, 20 μM, read-out: 5α-DHT formed (% of control)) was 121 ± 5%. The “visible change in cell morphology” value [10] was “did not produce any visible”, the “Pigmented Macule, Untreated (L)” value ([11]; Table 4, 1 mg fatty acid alone, 18 days) was 4.4 ± 0.4 mm^2 and the “Pigmented Macule, Untreated (L)” value ([11]; Table 4, 2 mg fatty acid alone, 18 days) was 4.6 ± 1.4 mm^2. For the same molecule, the “Pigmented Macule, Untreated (L)” value ([11]; Table 4, T 0.5 μg + 1 mg fatty acid) was 4.3 ± 0.6 mm^2, the “Pigmented Macule, Untreated (L)” value ([11]; Table 4, T 0.5 μg + 2 mg fatty acid) was 4.2 ± 0.4 mm^2 and the “significance vs T alone” value ([11]; Table 4, T + 1 mg fatty acid) was “N.S”. The “significance vs T alone” value ([11]; Table 4, T + 2 mg fatty acid) was “N.S”, the “inhibition of T-induced growth of pigmented macule” value ([11]; hamster, in vivo) was “did not inhibit” and the “4-Androstendione formed (% of control)” value ([12]; 5 μM) was 103 ± 2 % of control. For the same molecule, the “4-Androstendione formed (% of control)” value ([12]; 20 μM) was 106 ± 5 % of control and the “effect on metabolism of testosterone to 4-androstenedione (17β-steroid dehydrogenase)” value ([12]; words) was “did not affect”.
